Paper PMC7139549, “TLD1433 Photosensitizer Inhibits Conjunctival Melanoma Cells in Zebrafish Ectopic and Orthotopic Tumour Models” (Cancers, 2020)

Test system: CRMM1 cells injected behind the eye (RO) of zebrafish embryos
Experiment: Zebrafish orthotopic CM tumour model, CRMM1
Assay type: in vivo, Zebrafish (Danio rerio)
Settings: for PI (Fluorescence Intensity) / PI (Tumour Area) / Relative Tumour Burden as Measured by Fluorescence Intensity / Tumour Area: CRMM1, Orthotopic Model; for PI (Fluorescence Intensity) / PI (Tumour Area): 0 vs 114 J.cm^−2
Method: The zebrafish ectopic conjunctival melanoma tumour model has been described previously. In this model, around 200 fluorescent CM cells are injected into the Duct of Cuvier at 2 dpf, and then disseminate through the blood circulation and grow in the head and tail. To establish the orthotopic tumour model, around 100 red, (td)Tomato fluorescent CRMM1 or CRMM2 cells were injected RO at 2 dpf into tg(Fli:GFP/Casper), endothelial reporter transgenic zebrafish with green fluorescent vasculature and examined by fluorescent microscopy at day 1 and 4 after engraftment (Figure 6A). Tumour expansion at the injection site was measured as fluorescence intensity and tumour area.
For cancer cell injection, two days post-fertilization (dpf), dechorionated zebrafish embryos were anaesthetized with 0.003% tricaine (Sigma) and plated on a 10 cm Petri dish covered with 1.5% of solidified agarose. CRMM1 and CRMM2 cells were suspended in PBS containing 2% polyvinylpyrrolidone (PVP; Sigma-Aldrich) with a concentration of 50,000 cells/µL and loaded into borosilicate glass capillary needles (1 mm O.D. × 0.78 mm I.D.; Harvard Apparatus). In the ectopic model, 200 (td)Tomato fluorescent CM cells were injected into the Duct of Cuvier or at 2 dpf, which led to dissemination through the blood circulation and outgrowth in the head and tail. In orthotopic tumour model, 100 (td)Tomato fluorescent CRMM1 or CRMM2 cells were injected RO in 2 dpf embryos using a Pneumatic Picopump and a manipulator (WPI). After injection, the embryos were incubated in a 34 °C incubator. Images were acquired at 1-, 2- and 4-days post injection (dpi) with a Leica M165 FC stereo fluorescence microscope. Tumor growth was quantified by calculating the total fluorescence intensity and area with the ZF4 pixel counting program (Leiden). Each experiment was performed at least 3 times with a group size of >30 embryos.
Fluorescent CRMM1 and CRMM2 cells were injected at 2 dpf into the Duct of Cuvier (ectopic model) and behind the eye (orthotopic model) and TLD1433 was delivered by WA, IV and RO administration with or without a light treatment as described in 4.8. For the WA administration, the 4.6 nM TLD1433 solution was added to the tumour cells injected zebrafish at 2.5, 3.5, 4.5, 5.5 dpf and maintained for 12 h. At 3, 4, 5, 6 dpf, the fish water was refreshed, and after 1 h, embryos were exposed to green light for 90 min (21 mW/cm^2, 114 J/cm^2, 520 nm). For the IV and RO administration, 1 nL of 2.3 mM TLD1433 solution was injected via the dorsal vein or the RO site at 3, 4, 5, 6 dpf. After 1 h interval, the embryos were exposed to green light for 90 min (21 mW/cm^2, 114 J/cm^2, 520 nm). After treatment, the embryos images were acquired with a Leica M165 FC stereo fluorescence microscope. Tumor growth was quantified by calculating the total fluorescence intensity and area with the ZF4 pixel counting program (Leiden). Each experiment was performed at least 3 times with a group size of >30 embryos.

[1] = Intravenous (1 nL of 2.3 mM), Light Dose 0 J.cm^−2, vs control dark group (100%)
[2] = Intravenous (1 nL of 2.3 mM), Light Dose 114 J.cm^−2, vs control dark group (100%)
[3] = Water (4.6 nM), Light dose 0 J.cm^−2, vs control dark group (100%)
[4] = Water (4.6 nM), Light dose 114 J.cm^−2, vs control dark group (100%)
[5] = CRMM1, orthotopic model, RO 2.3 mM, green light 114 J.cm^−2

## Cc1ccnc(-c2cc(C)ccn2)c1.Cc1ccnc(-c2cc(C)ccn2)c1.[Cl-].[Cl-].[Ru+2].c1csc(-c2ccc(-c3ccc(-c4nc5c6cccnc6c6ncccc6c5[nH]4)s3)s2)c1 [TLD1433]
Intravenous (1 nL of 2.3 mM)
  PI (Fluorescence Intensity): 0.82
  PI (Tumour Area): 0.87
[1]
  Relative Tumour Burden as Measured by Fluorescence Intensity: 91%
  Tumour Area: 109%
[2]
  Relative Tumour Burden as Measured by Fluorescence Intensity: 111%
  Tumour Area: 126%
Retro orbital (1 nL of 2.3 mM)
  PI (Tumour Area): 4.1
Retro orbital (1 nL of 2.3 mM), Light dose 0 J.cm^−2, vs control dark group (100%)
  Tumour Area: 125%
Retro orbital (1 nL of 2.3 mM), Light dose 114 J.cm^−2, vs control dark group (100%)
  Tumour Area: 31%
Retro-orbital (1 nL of 2.3 mM)
  PI (Fluorescence Intensity): 1.8
Retro-orbital (1 nL of 2.3 mM), Light Dose 0 J.cm^−2, vs control dark group (100%)
  Relative Tumour Burden as Measured by Fluorescence Intensity: 120%
Retro-orbital (1 nL of 2.3 mM), Light Dose 114 J.cm^−2, vs control dark group (100%)
  Relative Tumour Burden as Measured by Fluorescence Intensity: 65%
Water (4.6 nM)
  PI (Fluorescence Intensity): 1.0
  PI (Tumour Area): 1.0
[3]
  Relative Tumour Burden as Measured by Fluorescence Intensity: 96%
  Tumour Area: 90%
[4]
  Relative Tumour Burden as Measured by Fluorescence Intensity: 96%
  Tumour Area: 89%
[5]
  diminished fluorescence intensity: 35%
  diminished tumour area: 69%
CRMM1, orthotopic model, WA at the MTD (4.6 nM), light 114 J.cm^−2
  effect on tumour burden (in words): did not inhibit tumour burden
